Measured values as given in US20110207691A1, “COBALAMIN COMPOSITIONS FOR THE TREATMENT OF CANCER” (BEBAAS, INC., priority 2006, published 2011).
“And” between values parts separate entries of the source, which are not always exact repeats. Equal entries are not always repeated.

Tests used:
[1] = tested on: WM9 melanoma cells; conditions: cited from earlier work
[2] = tested on: BD-MB231 breast cancer cells; experiment: Cell survival count after treatment, BD-MB231 breast cancer cells; assay type: cell-based; conditions: cultures grown for 48 hours, then counted
Protocol: Cell cultures were grown and maintained using standard protocols for the respective cell line. Suitable culturing methods are described in, for example, Cancer Cell Culture: Method and Protocols (Methods in Molecular Medicine) Langdon (Ed) Humana Press, 2003 and General Techniques of Cell Culture (Handbooks in Practical Animal Cell Biology) Harrison and Rae, Cambridge University Press, 2005. Cultures were grown for 48 hours and subsequently counted to determine the number surviving after treatment with hydroxycobalamin, methylcobalamin or adenosylcobalamin and the aforementioned cobalamin analogs in combination with a nitric oxide-cobalamin complex. Determination of cell survival can be accomplished using, for example, a hemocytometer and Trypan Blue staining. […] Total number of cells can be determined living and dead cells can be determined and treatments compared.

nitrosylcobalamin
effect on WM9 melanoma cells [1]: anti-proliferative effect

C/C1=C2/[N-][C@H]([C@H](CC(N)=O)[C@@]2(C)CCC(=O)NC[C@@H](C)OP(=O)([O-])O[C@H]2[C@@H](O)[C@@H](n3cnc4cc(C)c(C)cc43)O[C@@H]2CO)[C@]2(C)N=C(/C(C)=C3N=C(/C=C4N=C1[C@@H](CCC(N)=O)C\4(C)C)[C@@H](CCC(N)=O)[C@]\3(C)CC(N)=O)[C@@H](CCC(N)=O)[C@]2(C)CC(N)=O.[Co+3].[OH-] [hydroxycobalamin]
number of surviving cells (mean) [2]: 472 and 729 and 728
